Molecules are shown by their SMILES.

One experiment relates to LNCaP cells. The experiment in a line: Cell growth / viability (Trypan Blue exclusion) of LNCaP cells. The experiment is classed as cell-based, human. An excerpt:
(§1) To interrogate the differential sensitivity to docetaxel of prostate cancer cells, two prostate cancer cell lines, LNCaP and LAPC4, were compared.
(§2) LNCaP-Abl cell line was provided by Zoran Culig (Innsbruck Medical University). LNCaP-C42 cell line was obtained from ViroMed Laboratories (Minneapolis). LNCaP-104R2 cell line was provided by Shutsung Liao (University of Chicago), and LAPC-4 cell line was provided by Charles Sawyers (Memorial Sloan Kettering Cancer Center). These cells were maintained with 10% fetal bovine serum (FBS) (LNCaP, LNCaP-C42, LMCaP-AI, VCAP, 22RV1, LAPC4, PC3, and DU145) or 10% charcoal-stripped serum (CSS) (LNCaP-Abl, and LNCaP-104R2) at 37 c in 5% CO2.

The test system of experiment [1] is metastatic hormone sensitive prostate cancer (mHSPC). Particulars: docetaxel given at the time of starting ADT for mHSPC; cited from earlier work.
The test system of experiment [2] is metastatic castration-resistant prostate cancer (mCRPC). To be noted: first-line; cited from earlier work.
The subject of experiment [3] is LAPC4 cells. The experiment in a line: Cell growth / viability (Trypan Blue exclusion) of LAPC4 cells. The experiment is classed as cell-based, human.
Excerpt: as §1, §2

Experiment [4] has as its system docetaxel-resistant prostate cancer. Particulars: docetaxel-resistant patients; cited from earlier work.
The subject of experiment [5] is LAPC4 cells. Particulars: LAPC4, upon docetaxel treatment.
Excerpt: as §1

On to `CC(=O)O[C@@]12CO[C@@H]1C[C@H](O)[C@@]1(C)C(=O)[C@H](O)C3=C(C)[C@@H](OC(=O)[C@H](O)[C@@H](NC(=O)OC(C)(C)C)c4ccccc4)C[C@@](O)([C@@H](OC(=O)c4ccccc4)[C@H]21)C3(C)C` [docetaxel], for which the IC20 with LNCaP cells (Homo sapiens, LNCaP cells, growth, read-out: IC20 concentration) worked out at 0.5 nM; in the experiment on LAPC4 cells [3] (Homo sapiens, LAPC4 cells, growth, read-out: IC20 concentration), 5 nM. Also, the “sensitivity of cells to docetaxel” value is “sensitive” in the experiment with LNCaP cells (LNCaP, 10 nM docetaxel, absence of DHT) and “sensitive” in the experiment with LAPC4 cells [3] (LAPC4, 10 nM docetaxel, absence of DHT). The OS in experiment [1] is given as 57 months. Also, the “improvement of OS” value in experiment [1] is given as 13 months. Also, the “prolongation of median overall survival (OS) over mitoxantrone” value in experiment [2] is on record as around 2 month.

With `CO[C@H]1C(=O)[C@]2(C)[C@@H](OC)C[C@H]3OC[C@@]3(OC(C)=O)[C@H]2[C@H](OC(=O)c2ccccc2)[C@]2(O)C[C@H](OC(=O)[C@H](O)[C@@H](NC(=O)OC(C)(C)C)c3ccccc3)C(C)=C1C2(C)C` [cabazitaxel], in experiment [4], the “improvement of median OS over mitoxantrone” value is on record as 2.4 months and the “median OS” value was 15.1 months.

On to `CNC(=O)c1ccc(N2C(=S)N(c3ccc(C#N)c(C(F)(F)F)c3)C(=O)C2(C)C)cc1F` [enzalutamide], for which the “effect on viability of cells treated with docetaxel in DHT supplemented media” value in the experiment with LAPC4 cells [3] (LAPC4) is “substantially reduced”. For the same compound, the “effect on docetaxel sensitivity in the presence of DHT” value in the experiment on LAPC4 cells [3] (LAPC4, 10 nM docetaxel, DHT) is “resensitized the cells to docetaxel”.

Consider `O=C1c2c(O)ccc(O)c2C(=O)c2c(NCCNCCO)ccc(NCCNCCO)c21` [mitoxantrone], for which the “median OS” value in experiment [4] is 12.7 months.

Regarding `C[C@]12CCC(=O)C[C@@H]1CC[C@@H]1[C@@H]2CC[C@]2(C)[C@@H](O)CC[C@@H]12` [DHT, dihydro-testosterone], the “effect of DHT on viability against docetaxel” value in the experiment on LNCaP cells (LNCaP, 0.01 nM to 0.1 mM docetaxel, Trypan Blue exclusion) is “not significantly affected”. The “effect of DHT on PARP cleavage” value in the experiment with LAPC4 cells [5] is “specifically reduced”. Further, in the experiment with LAPC4 cells [3] (LAPC4), the “impact of DHT treatment on docetaxel sensitivity” value is recorded as “dose-dependent”. Besides, in the experiment on LAPC4 cells [3] (LAPC4, 0.01 nM to 0.1 mM docetaxel, Trypan Blue exclusion), the “effect of DHT on viability in docetaxel” value is “markedly increased”. Further, the “effect of 10 nM DHT on cell growth in the presence of docetaxel” value with LAPC4 cells [3] (LAPC4, 10 nM docetaxel) is listed as “restoration of cell growth”.

These data come from patent publication US12168803B2, “Compositions and methods for screening and diagnosis of prostate cancer” (DANA-FARBER CANCER INSTITUTE, INC., priority 2015, dated 2024).
